From patent US20230277508A1, “USE OF COMPOUND AS CYP2E1 INHIBITOR” (SHANGHAI LING XI BIOTECHNOLOGY DEVELOPMENT CO., LTD., priority 2020, published 2023)

How the values were obtained:
[1] = test system: DEN-induced liver fibrosis in rats; assay: DEN-induced rat liver fibrosis model; type: in vivo, SD rat; settings: 12 weeks, vs model group
Experimental: Experimental method: An SD rat liver damage model was constructed through intermittent intraperitoneal injection of DEN. A model group was injected intraperitoneally with DEN at 50 mg/kg twice a week in the first 4 weeks and then once a week in the 5th to 12th weeks. An SMI0 intervention group was divided into SMI0+DEN low-dose and high-dose groups and an SMI0 high-dose continuous administration group, where the SMI0+DEN low-dose and high-dose groups were intragastrically administered with the compound SMI0 at 30 mg/kg and 150 mg/kg 5 min before DEN administration each time, respectively; and the SMI0 high-dose continuous administration group was intragastrically administered with the compound SMI0 at 150 mg/kg every day from the 1st week to the 12th week. At the end of molding, blood was collected from the orbit, and plasma liver function indexes of rats were determined by an automatic biochemical analyzer (model group, n=10 rats; SMI0 compound low-dose group, n=21 rats; SMI0 compound+DEN high-dose group, n=28 rats; and SMI0 compound high-dose continuous administration group, n=24 rats).

[2] = test system: lung cancer cell line Lewis in situ transplanted tumor; assay: Mouse lung cancer model, in situ implantation of Lewis cells into lungs; type: in vivo, C57BL/6N mice
Experimental: Experimental method: A female C57 mouse lung cancer model with an in situ transplanted tumor was prepared with a lung cancer cell line Lewis at a cell amount of 2*10^4. C57BL/6N mice were divided into a control group, a model group, a positive drug group, and an SMI0 intervention group, and the modeling took 18 days (control group, n=20; model group, n=20; positive drug group (20 mg/kg), n=15; SMI0 (3.3 mg/kg), n=15; SMI0 (10 mg/kg), n=20; and SMI0 (30 mg/kg), n=20). At the end of the experiment, a body weight of mice in each group was recorded, blood was collected from the orbit, the mice were sacrificed, and lung tissues and tumor tissues were collected and weighed. The weight and appearance of the lung (color, texture, or the like of the lung) were recorded. All tumors of an animal were cumulatively arranged together to indicate the tumorigenesis of the animal, and a cumulative weight of lung tumors in each animal was determined. Some lung specimens were subjected to HE staining, and then the lung lesion and tumorigenesis of mice in each group were observed.
Experimental method: A WB method was used to detect the expression of […] cytokines TGF-β, IL-10, and IL-4, inflammation-associated signaling pathway proteins IL-6/p-STAT3 and p-ERK1/2/ERK1/2, and epithelial-mesenchymal transition (EMT)-associated proteins MMP-2 and MMP-9 in the mouse paracancerous lung tissue of each group and detect the expression of […] proteins caspase3 and Bcl-2 and an autophagy-associated protein p53 in the tumor tissue.

[3] = test system: liver cancer cell line H22 in situ transplanted tumor; assay: Mouse liver cancer model, in situ implantation of H22 cells into liver; type: in vivo, BALB/c mouse; settings: for liver H22 tumor incidence: 24 days, model group 100%
Experimental: Experimental method: A male BALB/c mouse liver transplanted tumor model was constructed through in situ implantation of a liver cancer cell line H22 into the liver, with a cell concentration of 1.5*10^5. An SMI0 intervention group was divided into a low-dose group, a medium-dose group, and a high-dose group, which were intragastrically administered with the compound SMI0 respectively at 3.3 mg/kg, 10 mg/kg, and 30 mg/kg every day from two days before modeling to the end of the 24-day modeling (model group, n=19 mice; SMI0 compound low-dose group, n=19 mice; SMI0 compound medium-dose group, n=18 mice; and SMI0 compound high-dose group, n=29 mice). At the end of the experiment, blood was collected from the orbit, a body weight was measured, and then the mice each were sacrificed. The weight and appearance of a liver (color and texture of the liver) were recorded. Some liver specimens were subjected to HE staining, and then the liver lesion and tumorigenesis of mice in each group were observed.
Experimental method: The levels of oxidative stress indexes MDA and T-AOC in the mouse paracancerous liver tissue were determined by a kit method; the expression of the chemokine CXCL-12 in the mouse paracancerous liver tissue was detected by RT-PCR; the expression of proinflammatory cytokines (TNF-α, IL-6, and IL-1β) and inflammation-associated signaling pathway proteins (ARRB1, Src, ITGAV, p-STAT3/STAT3, p-ERK/ERK, and p-P38MAPK/P38MAPK) in the mouse paracancerous liver tissue was detected by a WB method; and the expression of apoptosis-associated proteins and signaling pathways casPase3, cleaved casPase3, p-ERK/ERK, and p-p38MAPK/p38MAPK in the tumor tissue was detected by a WB method.

HepG2 liver cancer cells = assay: Direct effect on HepG2 liver cancer cells; type: cell-based; settings: up to 100 μmol/L, 24 h
Experimental: Experimental method: HepG2 liver cancer cells and H22 liver cancer cells in a logarithmic growth phase each were selected and inoculated into a 96-well plate at a concentration of 1*10^5 cells/mL, and then 100 μL of a basic medium including SMI0 at different concentrations (0 μmol/L, 0.16 μmol/L, 0.8 μmol/L, 4 μmol/L, 20 μmol/L, and 100 μmol/L) was added to each well; and 24 h later, the proliferation activity of HepG2 was determined by a CCK8 method, a migration ability of HepG2 was determined by wound-healing assay, and an apoptosis ability of HepG2 was determined by flow cytometry (FCM).

[4] = test system: ovarian cancer ID-8 cell line in situ transplanted tumor; assay: Mouse ovarian cancer in situ transplanted tumor model (ID-8); type: in vivo, C57/6 mouse; settings: as high as; SMI0 30 mg/kg ig daily, 60-day modeling
Experimental: Experimental method: A female C57/6 mouse ovarian cancer in situ transplanted tumor model was constructed with a murine ovarian cancer ID-8 cell line at a cell concentration of 1×10^6. A model group and an SMI0 intervention group were set for the experiment. The intervention group was intragastrically administered with the SMI0 compound at 30 mg/kg every day from three days before modeling to the end of the 60-day modeling (model group, n=15; and SMI0 compound (30 mg/kg) group, n=12). At the end of the experiment, blood was collected from the orbit, a body weight was measured, then the mice each were sacrificed, and ovary tissues and tumor tissues were collected. Ovary tissue specimens were subjected to HE staining, and then the ovary tumor tissue and tumorigenesis of mice in each group were observed.

[5] = WB, SMI0 30 mg/kg vs model group, P<0.01
[6] = WB, SMI0 30 mg/kg vs model group, P<0.05
[7] = WB, SMI0 30 mg/kg vs model group

CC(=O)c1scnc1C [SMI0] was tested, and the liver coefficient ([1]; SMI0 intervention group (30, 150 mg/kg before DEN; 150 mg/kg daily)) was “reduced to varying degrees”, the “Collagen I” value ([1]; SMI0 intervention group) was “reduced to varying degrees” and the “liver fibrosis Ishark score” value ([1]; SMI0 intervention group) was “reduced to varying degrees”. For the same molecule, the “liver fibrosis Masson staining area percentage” value ([1]; SMI0 intervention group) was “reduced to varying degrees”, the α-SMA ([1]; SMI0 intervention group) was “reduced to varying degrees” and the “expression of the autophagy-associated protein p53 in the tumor tissue” value [2, 5] was “significantly increased”. For the same molecule, the “expression of Bcl-2 in the tumor tissue” value [2, 6] was “significantly reduced”, the “expression of caspase3 in the tumor tissue” value [2, 6] was “significantly reduced” and the “expression of proinflammatory cytokines (TGF-β and IL-10), IL-6/p-STAT3, p-ERK1/2/ERK1/2, MMP-2 and MMP-9 in the paratumoral tissue” value ([2]; WB, SMI0 intervention group vs model group, P<0.05) was “significantly reduced”. The “tumor proliferation inhibition rate” value ([2]; as high as, SMI0 intervention group (3.3, 10, 30 mg/kg), 18 days, lung tumor weight) was 68.3%, the “liver H22 tumor incidence” value ([3]; SMI0 high-dose 30 mg/kg ig daily) was 68.4% and the “total oxidation resistance index T-AOC in paratumoral liver tissue” value ([3]; SMI0 intervention group vs model group, P<0.01) was “significantly increased”. The “expression of other proteins (MDA, CXCL-12, TNF-α, IL-6, IL-1β, ARRB1, Src, ITGAV, p-STAT3/STAT3, p-ERK/ERK, p-p38MAPK/p38MAPK) in paratumoral liver tissue” value ([3]; SMI0 intervention group vs model group, P<0.05 or P<0.01) was “significantly reduced”, the “liver H22 tumor incidence” value ([3]; SMI0 low-dose 3.3 mg/kg ig daily) was 78.9% and the “liver H22 tumor incidence” value ([3]; SMI0 medium-dose 10 mg/kg ig daily) was 72.2%. For the same molecule, the “expression of p-ERK/ERK in the tumor tissue” value [3, 7] was “significantly down-regulated”, the “expression of p-p38MAPK/p38MAPK in the tumor tissue” value [3, 7] was “significantly down-regulated” and the “expression of cleaved caspase3/caspase3 in the tumor tissue” value [3, 5] was “significantly up-regulated”. The “tumor proliferation inhibition rate” value ([3]; as high as, SMI0 intervention group (3.3, 10, 30 mg/kg), cumulative liver tumor weight) was 71.8%, the “effect on the proliferation, migration, and apoptosis of HepG2 liver cancer cells” value (HepG2 liver cancer cells) was “no significant inhibitory effect” and the “ascites weight inhibition rate” value [4] was 76.40%. For the same molecule, the “tumor proliferation inhibition rate” value [4] was 63.14%.
